The values that follow come from ChEMBL document CHEMBL4177726, “Synthesis and anti-influenza virus evaluation of triterpene-sialic acid conjugates” (Bioorg Med Chem, 2018).

For series [1], the target named is Neuraminidase (Influenza A virus (A/Memphis/1/1971(H3N2))) (UniProt P03471). The experiment in a line: Inhibition of Influenza A virus A/Memphis/1/71(H3N2) sialidase at 3.33 x 10^-4M preincubated for 15 mins followed by MUNA substrate addition measured after 15 mins by fluorescence assay relative to control.
Series [2] is described as follows: Inhibition of Influenza A virus A/Duck/313/4/78(H5N3) sialidase at 3.33 x 10^-4M preincubated for 15 mins followed by MUNA substrate addition measured after 15 mins by fluorescence assay relative to control.
Series [3] addresses Neuraminidase (Influenza A virus (A/Puerto Rico/8/1934(H1N1))) (UniProt P03468). Nature of the series: Inhibition of Influenza A virus A/PR/8/34(H1N1) sialidase at 3.33 x 10^-4M preincubated for 15 mins followed by MUNA substrate addition measured after 15 mins by fluorescence assay relative to control.
In series [4] the test system is Influenza A virus. Nature of the series: Antiviral activity against Influenza A virus A/PR/8/34(H1N1) infected in MDCK cells assessed as viral yield at 1 x 10^-5 M preincubated with virus for 1 hr followed by viral infection measured after 18 hrs by beta-galactosidase based fluorescence assay (reference value: 100%). The series is classed as functional, A/Puerto Rico/8/1934(H1N1).

For series [5], the system named is MDCK. Nature of the series: Cytotoxicity against MDCK cells assessed as reduction in cell viability at 1 x 10^-5 M after 24 hrs by CCK8 assay. The series is classed as cell-based, Canis lupus familiaris. Conditions: dog, 10 µM. For orientation: Tetrazolium dyes change colour on reduction, which living cells bring about.
For series [6], the system named is Influenza A virus. The experiment in a line: Antiviral activity against Influenza A virus A/PR/8/34(H1N1) infected in MDCK cells assessed as reduction in viral yield at 1 x 10^-5 M preincubated with virus for 1 hr followed by viral infection measured after 18 hrs by beta-galactosidase based fluorescence assay. The series is classed as functional, organism-based. Conditions: A/Puerto Rico/8/1934(H1N1).

Each structure is given as a SMILES string.

Sequence of Neuraminidase (Influenza A virus (A/Memphis/1/1971(H3N2))) (P03471 whole entry): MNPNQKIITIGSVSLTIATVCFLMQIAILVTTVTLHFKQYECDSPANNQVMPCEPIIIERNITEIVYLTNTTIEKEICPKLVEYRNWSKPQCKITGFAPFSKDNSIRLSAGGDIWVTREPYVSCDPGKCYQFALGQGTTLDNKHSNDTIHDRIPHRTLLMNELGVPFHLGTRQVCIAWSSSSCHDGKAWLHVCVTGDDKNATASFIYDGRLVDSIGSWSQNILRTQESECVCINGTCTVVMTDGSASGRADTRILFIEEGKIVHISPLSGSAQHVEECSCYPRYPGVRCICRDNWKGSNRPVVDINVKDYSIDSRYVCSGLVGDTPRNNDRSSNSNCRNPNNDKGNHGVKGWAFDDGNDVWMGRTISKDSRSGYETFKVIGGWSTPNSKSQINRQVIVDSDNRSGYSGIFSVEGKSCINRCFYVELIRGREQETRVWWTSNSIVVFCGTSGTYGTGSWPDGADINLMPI
Sequence of Neuraminidase (Influenza A virus (A/Puerto Rico/8/1934(H1N1))) (P03468 whole entry): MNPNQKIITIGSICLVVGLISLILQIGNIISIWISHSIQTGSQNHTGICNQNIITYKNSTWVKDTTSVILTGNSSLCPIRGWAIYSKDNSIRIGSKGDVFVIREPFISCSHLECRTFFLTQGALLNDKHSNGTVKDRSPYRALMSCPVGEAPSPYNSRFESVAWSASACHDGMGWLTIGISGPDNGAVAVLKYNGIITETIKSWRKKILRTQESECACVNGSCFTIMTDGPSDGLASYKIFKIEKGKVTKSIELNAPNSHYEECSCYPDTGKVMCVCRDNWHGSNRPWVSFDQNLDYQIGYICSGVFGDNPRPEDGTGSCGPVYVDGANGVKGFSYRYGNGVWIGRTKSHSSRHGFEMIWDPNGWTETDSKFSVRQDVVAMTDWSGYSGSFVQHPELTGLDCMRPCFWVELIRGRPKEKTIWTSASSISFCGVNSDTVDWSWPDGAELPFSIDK

By inhibition is commonly meant the drop in the measured response relative to a control, in per cent. `CC(=O)N[C@H]1[C@H]([C@H](O)[C@H](O)CO)O[C@](O[C@H]2CC[C@]3(C)[C@H]4C(=O)C=C5[C@@H]6C[C@@](C)(C(=O)O)CC[C@]6(C)CC[C@@]5(C)[C@]4(C)CC[C@H]3C2(C)C)(C(=O)O)C[C@@H]1O`: the inhibition was 23.4% in series [1], 25.8% in series [2] and 21.1% in series [3].
Regarding `CC(=O)N[C@H]1[C@H]([C@H](O)[C@H](O)CO)O[C@@](O[C@H]2CC[C@]3(C)[C@H]4CC=C5[C@@H]6C[C@@](C)(CO)CC[C@]6(C)CC[C@@]5(C)[C@]4(C)CC[C@H]3C2(C)C)(C(=O)O)C[C@@H]1O`, the inhibition in series [1] is 45%; in series [2] it was 57.6%; in series [3], 71%. Moreover, the values for the Activity in series [4] and in series [5] were 88% and “Non-Toxic”, respectively.
As for `COC(=O)[C@]12CCC(C)(C)C[C@H]1C1=CC[C@@H]3[C@@]4(C)CC[C@H](O[C@@]5(C(=O)O)C[C@H](O)[C@@H](NC(C)=O)[C@H]([C@H](O)[C@H](O)CO)O5)C(C)(C)[C@@H]4CC[C@@]3(C)[C@]1(C)CC2`, the Activity entry in series [6] is “Dose-dependent effect”; in series [4] it was 46.7%; in series [5], “Non-Toxic”. Besides, the figures for the inhibition in series [1], in series [2] and in series [3] were 64.9%, 70.7% and 89.9%, respectively.
Regarding `CC(=O)N[C@H]1[C@H]([C@H](O)[C@H](O)CO)O[C@](O[C@H]2CC[C@]3(C)[C@H]4CC=C5[C@@H]6C[C@@](C)(CO)CC[C@]6(C)CC[C@@]5(C)[C@]4(C)CC[C@H]3C2(C)C)(C(=O)O)C[C@@H]1O`, the Activity entry was “Dose-dependent effect” in series [6], 72.6% in series [4] and “Non-Toxic” in series [5]. Also, the inhibition in series [1] came to 68.7%; in series [2], 55.7%; in series [3], 76.7%.
Regarding `CC(=O)N[C@H]1[C@H]([C@H](O)[C@H](O)CO)O[C@@](O[C@H]2CC[C@]3(C)[C@H]4C(=O)C=C5[C@@H]6C[C@@](C)(CO)CC[C@]6(C)CC[C@@]5(C)[C@]4(C)CC[C@H]3C2(C)C)(C(=O)O)C[C@@H]1O`, the values for the inhibition in series [1], in series [2] and in series [3] were 30.3%, 25.3% and 50.3%, respectively.
With `CC(=O)N[C@H]1[C@H]([C@H](O)[C@H](O)CO)O[C@](O[C@H]2CC[C@]3(C)[C@H]4C(=O)C=C5[C@@H]6C[C@@](C)(CO)CC[C@]6(C)CC[C@@]5(C)[C@]4(C)CC[C@H]3C2(C)C)(C(=O)O)C[C@@H]1O`, the inhibition is 40.3% in series [1], 43.8% in series [2] and 35.8% in series [3].
On to `CC(=O)N[C@H]1[C@H]([C@H](O)[C@H](O)CO)O[C@@](O[C@H]2CC[C@]3(C)[C@H]4C(=O)C=C5[C@@H]6C[C@@](C)(C(=O)O)CC[C@]6(C)CC[C@@]5(C)[C@]4(C)CC[C@H]3C2(C)C)(C(=O)O)C[C@@H]1O`, for which the inhibition in series [1] was found to be 27.4%; in series [2], 16.4%; in series [3] it was 50.1%.
With `COC(=O)[C@]12CCC(C)(C)C[C@H]1C1=CC[C@@H]3[C@@]4(C)CC[C@H](O[C@]5(C(=O)O)C[C@H](O)[C@@H](NC(C)=O)[C@H]([C@H](O)[C@H](O)CO)O5)C(C)(C)[C@@H]4CC[C@@]3(C)[C@]1(C)CC2`, the values for the inhibition in series [1], in series [2] and in series [3] were 70.7%, 65.7% and 74.9%, respectively. Besides, the Activity in series [4] is 39.4%; in series [5] it was “Non-Toxic”.
Regarding `COC(=O)[C@@]1(C)CC[C@]2(C)CC[C@]3(C)C(=CC(=O)[C@@H]4[C@@]5(C)CC[C@H](O[C@]6(C(=O)O)C[C@H](O)[C@@H](NC(C)=O)[C@H]([C@H](O)[C@H](O)CO)O6)C(C)(C)[C@@H]5CC[C@]43C)[C@@H]2C1`, the inhibition is 39.9% in series [1], 27.5% in series [2] and 52.2% in series [3].
Consider `COC(=O)[C@@]1(C)CC[C@]2(C)CC[C@]3(C)C(=CC(=O)[C@@H]4[C@@]5(C)CC[C@H](O[C@@]6(C(=O)O)C[C@H](O)[C@@H](NC(C)=O)[C@H]([C@H](O)[C@H](O)CO)O6)C(C)(C)[C@@H]5CC[C@]43C)[C@@H]2C1`, for which the inhibition in series [1] worked out at 44.8%; in series [2] it was 46.2%; in series [3], 35.4%.
Take `CC(=O)N[C@H]1[C@H]([C@H](O)[C@H](O)CO)O[C@](O[C@H]2CC[C@]3(C)[C@H]4CC=C5[C@@H]6CC(C)(C)CC[C@]6(C(=O)O)CC[C@@]5(C)[C@]4(C)CC[C@H]3C2(C)C)(C(=O)O)C[C@@H]1O`: the results for the inhibition in series [1], in series [2] and in series [3] were 26.5%, 34.6% and 33.2%, respectively.
